Results from patent US20240002372A1, “ANTICHOLINERGIC AGENTS” (REZUBIO PHARMACEUTICALS CO., LTD, priority 2020, published 2024).
Structures can show the parent of a compound that is named as a salt.

The compounds below were run against M3 receptor (Homo sapiens (Human), UniProt P20309) (assay: FLIPR calcium flux assay, antagonist mode, CHO-K1 cells stably expressing M3 receptor). Conditions: inhibition of acetylcholine-induced calcium flux (8 nM acetylcholine, EC80).
Type: cell-based
Procedure: FLIPR assay was used to evaluate the potency of compounds. CHO-K1 cells stably expressing M3 receptor were cultured at 37° C. in the culture media (90% Ham's F-12 Nutrient Mixture, Gibco; 10% fetal bovine serum, Biosera; 200 μg/mL Hygromycin, and Penicillin (100 U/mL)/Streptomycin (100 μg/mL), Invitrogen) till 100% confluency in cell culture incubator (ThermoFisher, 5% CO2). Cells were harvested by using 0.25% Trypsin/EDTA, spun down at 300×g for 5 min, and resuspended in the culture media at cell density of 5×10^5 cells/mL. Twenty microliter of cell suspension (10,000 cells/well) was transferred to 384-well plate and cultured for 24 hr before assay. DMSO was used as blank control and scopolamine (MedChemExpress) as a positive control for antagonist. Compounds were prepared in DMSO (stock concentration: 1 mM) and 3×serially diluted (10 concentrations) in 384-LDV plate (Labcyte). Ninety nL of serially diluted compounds were transferred from 384-LDV plate into compound plate (PerkinElmer) by Echo 550 (Labcyte), and 30 uL assay buffer (1×HBSS with 20 mM HEPES, pH 7.4, Sigma) were added to each well. For FLIPR assay, culture media was removed and 20 uL of 1× loading dye (Assay buffer with 2 μM Fluo-8 AM, AAT Bioquest; 1 mM Probenecid and 0.0025% pluronic F-127, Sigma) was added to each well. The plate was incubated at 37° C. for 1 hr (avoid light exposure). For FLIPR assay, Excitation wavelength was set at 470/495 nm and Emission wavelength was set at 515/575 nm (Molecular Devices). Assay was performed in both agonist and antagonist modes. For agonist mode, 10 μL of diluted compounds were transferred to cell culture well and incubated at room temperature for 10 min. For antagonist mode, 10 μL diluted compounds with 8 nM acetylcholine (EC80, MedChemExpress) was added to each well, incubated at room temperature for 10 min. RFU value was calculated by subtracting minimum from maximum of FLIPR signal. Inhibitory effect of compounds on acetylcholine-induced calcium flux was calculated by % Effect=(RFUsample−RFUDMSO)/(RFUScopolamine−RFUDMSO)×100. Dose response curve fitting and IC50 value of each compound was calculated by using XLFit. The following table lists the IC50 where * means IC50>1000 nM; ** 10-100 nM; ***<10 nM.

Sequence of M3 receptor (P20309 whole entry): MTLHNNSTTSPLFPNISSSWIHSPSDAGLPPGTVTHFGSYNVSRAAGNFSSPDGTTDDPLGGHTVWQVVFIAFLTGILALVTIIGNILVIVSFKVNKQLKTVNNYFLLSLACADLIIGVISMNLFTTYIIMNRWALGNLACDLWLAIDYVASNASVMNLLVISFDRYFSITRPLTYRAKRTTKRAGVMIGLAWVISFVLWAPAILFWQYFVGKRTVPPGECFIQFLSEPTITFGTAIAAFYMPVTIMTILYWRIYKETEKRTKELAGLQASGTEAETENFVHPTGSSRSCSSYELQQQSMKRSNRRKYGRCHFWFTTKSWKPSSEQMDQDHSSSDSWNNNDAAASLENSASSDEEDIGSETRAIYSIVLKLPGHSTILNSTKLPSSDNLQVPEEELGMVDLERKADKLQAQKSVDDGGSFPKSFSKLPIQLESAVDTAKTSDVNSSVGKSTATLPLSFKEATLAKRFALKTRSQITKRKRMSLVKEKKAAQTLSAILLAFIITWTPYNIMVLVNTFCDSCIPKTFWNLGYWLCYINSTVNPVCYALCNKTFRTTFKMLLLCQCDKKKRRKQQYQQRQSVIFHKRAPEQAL

IC50	SMILES
10 to 100 nM	C[N+]1(C)CCC[C@H]1COC(=O)C(O)c1ccccc1C1=CCCC1 (single isomer, unassigned) [Example 8, trifluoroacetate]
< 10 nM	C[N+]1(C)CC[C@@H](OC(=O)C(O)c2ccccc2C2=CCCC2)C1 (single isomer, unassigned) [Example 2, trifluoroacetate]
< 10 nM	C[N+]1(C)CCC[C@H]1COC(=O)C(O)c1ccccc1C1=CCCC1 (single isomer, unassigned) [Example 9, trifluoroacetate]
10 to 100 nM	C[N+]1(C)CC[C@H](OC(=O)C(O)c2ccccc2C2=CCCC2)C1 (single isomer, unassigned) [Example 4, trifluoroacetate]
10 to 100 nM	C[N+]1(C)CC[C@H](OC(=O)C(O)c2ccccc2C2=CCCC2)C1 (single isomer, unassigned) [Example 5, trifluoroacetate]
< 10 nM	C[N+]1(C)CCC[C@@H]1COC(=O)C(O)c1ccccc1C1=CCCC1 (single isomer, unassigned) [Example 6, trifluoroacetate]

Second part, the compound before the results:

SMILES	IC50
C[N+]1(C)CC[C@@H](OC(=O)C(O)c2ccccc2C2=CCCC2)C1 (single isomer, unassigned) [Example 3, trifluoroacetate]	10 to 100 nM
C[N+]1(C)CCC(OC(=O)C(O)c2ccccc2C2CCCC2)C1 (stereo not drawn) [Example 10, 3-[2-(2-Cyclopentyl-phenyl)-2-hydroxy-acetoxy]-1,1-dimethyl-pyrrolidinium chloride]	10 to 100 nM
C[N+]1(C)CCC[C@@H]1COC(=O)C(O)c1ccccc1C1=CCCC1 (stereo partly drawn) [Example 7, (R)-2-((2-(2-(cyclopent-1-en-1-yl)phenyl)-2-hydroxyacetoxy)methyl)-1,1-dimethylpyrrolidin-1-ium trifluoroacetate]	10 to 100 nM
C[N+]1(C)CC[C@@H](OC(=O)C(O)c2ccccc2-c2ncco2)C1 (stereo partly drawn) [Example 1, (3R)-3-(2-hydroxy-2-(2-(oxazol-2-yl)phenyl)acetoxy)-1,1-dimethylpyrrolidin-1-ium trifluoroacetate]	10 to 100 nM
C[N+]1(C)CCC(OC(=O)C(O)c2ccccc2-c2ccccc2)C1 (stereo not drawn) [Example 11, 3-(2-([1,1′-biphenyl]-2-yl)-2-hydroxyacetoxy)-1,1-dimethylpyrrolidin-1-ium chloride]	10 to 100 nM
CC(C)c1ccccc1C(O)C(=O)OC1CC[N+](C)(C)C1 (stereo not drawn) [Example 12, 3-(2-hydroxy-2-(2-isopropylphenyl)acetoxy)-1,1-dimethylpyrrolidin-1-ium chloride]	> 1000 nM
